We go through one compound from article PMC6539903 (Molecules, 2019).

Data set [1] can be described thus: MTT cytotoxicity assay, non-cancer colon cells. The format is cell-based. The note with it: human, NCM460 colonic epithelial cells (non-cancer cell line), n = 3, non-cancer cell line, read-out: CC50 ± SD NUM460. Summed up: (§1)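 Cells treated with compound in triplicate wells, then MTT (5 mg/mL in PBS) added for 4 h and formazan dissolved in DMSO; absorbance read at 570 nm with 630 nm reference. IC50 derived relative to DMSO-treated controls; each assay run three times.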

The test system of data set [2] is MCF-7. The data set is described as follows: MTT antiproliferation assay, MCF-7. The format is cell-based. The note with it: Homo sapiens, MCF7, 48 h, n = 3, read-out: IC50 ± SD MCF-7. The procedure, abridged:
as §1
For orientation: Tetrazolium assays rely on reduction of a dye to a coloured formazan, in cell work by metabolically active cells.

Data set [3] has as its system SW620 xenografts tumor model. In words: SW620 xenograft model in vivo. Conditions: nude mice, 20 mg/kg intraperitoneal every 2 days, start about 100 mm^3. As to the method:
In view of potent cox-2 selective inhibitory activity and anti-colon cancer proliferation activity in vitro, compound 4b was further evaluated for anti-colon cancer activity in vivo. SW620 cells (5 × 10^6) were subcutaneously injected into the rightwing nude mice to establish a xenograft model. […]. Intraperitoneal administration was performed every 2 days and tumor volume changes were recorded for 12 consecutive days. […]. After 12 days of treatment, the tumor volumes of the two treatment groups were 43.71 mm^3 and 51.69 mm^3, respectively. Finally, the tumors of each group were removed and weighed to calculate the ratio of tumor weight to body weight. […] In contrast, body weight increased slightly in the vehicle group at the later stage of treatment (Figure 5C). […] This series of representative compounds 4b, as a selective COX-2 inhibitor for the targeted therapy of colon cancer, had prominent research prospect.
Nude mice aged 6-8 weeks were purchased from the model animal research center of nanjing university and bred in a specific non-pathogenic environment. A xenograft model was established by subcutaneous injection of SW620 cells […] DMEM into the right wing (18–22 g) of nude mice. […]. Vehicle treatment groups were treated with polyethylene glycol (containing 1% DMSO). […] After administration, weighed every two days and measured tumor volume with a vernier caliper. […]

Data set [4] has as its system A549. The data set is described as follows: MTT antiproliferation assay, A549. The format is cell-based. The note with it: Homo sapiens, 48 h, n = 3, read-out: IC50 ± SD A549. Summed up: as §1
Data set [5] has as its system HepG2. The data set is described as follows: MTT antiproliferation assay, HepG2. The format is cell-based. The note with it: Homo sapiens, 48 h, n = 3, read-out: IC50 ± SD HepG2. The procedure, abridged:
as §1

In data set [6] the target is T1, COX-2 (Homo sapiens, UniProt P35354).
T1 construct: purchased Cayman Chemical 701180
T1 sequence (P35354 18-604): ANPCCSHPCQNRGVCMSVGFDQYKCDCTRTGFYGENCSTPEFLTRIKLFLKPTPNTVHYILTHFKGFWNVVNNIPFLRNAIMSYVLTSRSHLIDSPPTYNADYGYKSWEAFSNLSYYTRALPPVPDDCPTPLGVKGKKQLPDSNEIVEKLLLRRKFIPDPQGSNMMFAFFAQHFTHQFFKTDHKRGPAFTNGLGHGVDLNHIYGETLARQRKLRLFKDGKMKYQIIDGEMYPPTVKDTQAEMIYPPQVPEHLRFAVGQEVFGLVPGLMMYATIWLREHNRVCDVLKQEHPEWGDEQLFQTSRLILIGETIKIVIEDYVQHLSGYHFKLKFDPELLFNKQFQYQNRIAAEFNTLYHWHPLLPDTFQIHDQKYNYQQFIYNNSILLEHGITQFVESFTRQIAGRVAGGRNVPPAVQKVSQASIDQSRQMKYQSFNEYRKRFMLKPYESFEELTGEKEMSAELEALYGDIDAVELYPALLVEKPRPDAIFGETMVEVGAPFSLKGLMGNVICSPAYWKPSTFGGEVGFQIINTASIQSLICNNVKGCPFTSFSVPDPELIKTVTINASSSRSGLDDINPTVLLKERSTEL
In words: COX-2 inhibition assay (COX-2 ELISA kit). The format is biochemical. Summed up:
(§2)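 Reaction stopped with 1 M HCl, then saturated stannous chloride (50 mg/mL) added and incubated 5 min at room temperature to reduce PGH2 to PGF2 for ELISA quantification.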
(In an ELISA, binding on a coated surface is turned into a signal by an enzyme label.)

The target in data set [7] is T2, COX-1 (Homo sapiens, UniProt P23219).
T2 construct: purchased Cayman Chemical 701170
The data set is described as follows: COX-1 inhibition assay (COX-1 ELISA kit). The format is biochemical. The note with it: mean of four determinations; read-out: IC50 ± SD COX-1. The procedure, abridged: as §2

Data set [8] has as its system HeLa. In words: MTT antiproliferation assay, HeLa. The format is cell-based. The note with it: Homo sapiens, 48 h, n = 3, read-out: IC50 ± SD HeLa. The procedure, abridged:
as §1

Data set [9] has as its system SW620 cells. The data set is described as follows: MTT antiproliferation assay, SW620. The format is cell-based. Conditions: Homo sapiens, SW-620, 48 h, n = 3, read-out: IC50 ± SD SW620. Summed up: as §1
Data set [10] has as its system SW620 cells. In words: Cell apoptosis assay (Annexin V-FITC/PI flow cytometry). The format is cell-based, human. The note with it: 24 h (0 μM: 7.9%). As to the method:
To confirm that antiproliferation activities of SW620 were associated with apoptosis, SW620 cell apoptosis induced by compound 4b was determined using flow cytometry with Annexin V-FITC/PI Apoptosis Detection Kit. […] The percentages of cell apoptosis 7.9%, 19.9%, 45.9%, and 65.0% were responding to the concentration of compound 4b 0 μM, 2.0 μM, 4.0 μM, and 8.0 μM, respectively.
SW620 cells were seeded in the 6-well plate ([…]) and treated with compound 4b to induce apoptosis at final concentrations of 0, 2, 4, and 8 μM for 24 h. After incubation, the cells were extracted with trypsin and washed with cold PBS twice. Cells are then bound to 500 μL buffer and then annexin-v/FITC (5 μL) and PI (5 μL) were added to the medium for another 10 min to incubate darkness. Staining cells were analyzed by flow cytometry (Becton Dickinson, Franklin, NJ, USA). Flowjo 7.6.1 software (Emerald Biotech Co. Ltd., Hangzhou, China) was used for statistical analysis.
In general terms: Flow cytometry measures light scatter and fluorescence of single cells or particles in a stream.

T2 sequence (P23219 24-599): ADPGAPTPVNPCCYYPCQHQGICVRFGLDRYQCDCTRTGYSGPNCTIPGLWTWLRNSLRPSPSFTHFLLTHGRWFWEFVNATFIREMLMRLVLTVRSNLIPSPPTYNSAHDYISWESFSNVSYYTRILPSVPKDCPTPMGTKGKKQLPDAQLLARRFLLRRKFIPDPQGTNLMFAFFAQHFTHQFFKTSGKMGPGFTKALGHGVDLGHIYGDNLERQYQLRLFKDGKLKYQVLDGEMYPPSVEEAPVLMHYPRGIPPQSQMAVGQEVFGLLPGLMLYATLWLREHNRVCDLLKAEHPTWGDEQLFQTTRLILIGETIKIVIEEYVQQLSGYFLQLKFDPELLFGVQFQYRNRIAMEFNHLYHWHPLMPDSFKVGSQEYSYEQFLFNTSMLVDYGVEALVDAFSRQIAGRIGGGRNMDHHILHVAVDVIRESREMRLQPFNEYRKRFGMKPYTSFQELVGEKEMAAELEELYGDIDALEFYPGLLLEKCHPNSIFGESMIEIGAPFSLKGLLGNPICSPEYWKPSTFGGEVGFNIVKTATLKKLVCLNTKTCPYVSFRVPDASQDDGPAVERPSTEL

As to `Cc1ccc(C2=NN(c3ccc(S(N)(=O)=O)cc3)C(c3ccc4c(c3)OCO4)C2)cc1` (centres unmarked) [Compound 4b, 4-(5-(Benzo[d][1,3]dioxol-5-yl)-3-(p-tolyl)-4,5-dihydro-1H-pyrazol-1-yl)benzenesulfonamide], the melting point (usually the temperature of the solid-liquid transition) fell in the range of 200 to 201 °C. Further, the CC50 (usually the concentration giving 50% cytotoxicity) at 48 h in data set [1] was determined as 134 ± 7.85 µM. Further, the IC50 (as a rule, the concentration needed to halve the response being measured) in data set [2] was found to be 2.99 ± 0.13 µM. For the same compound, in [3], the “tumor volume after 12 days of treatment” value turned out to be 43.71 mm^3. The IC50 in data set [4] is 1.94 ± 0.06 µM. Moreover, in data set [5], the IC50 is 2.96 ± 0.14 µM. Besides, the “Selectivity Index (SI) (COX-1 IC50/COX-2 IC50)” value in [6] (in vitro COX-2 selectivity index) is reported as 137.3. Besides, the IC50 in data set [6] (mean of four determinations, read-out: IC50 ± SD COX-2) was found to be 0.35 ± 0.02 µM. In addition, in data set [7], the IC50 is 48.06 ± 0.35 µM. In [8], the IC50 is 2.98 ± 0.17 µM. Besides, in [9], the IC50 came to 0.86 ± 0.02 µM. The “percentage of cell apoptosis” value in data set [10] (SW620, 2.0 μM) stood at 19.9%. Also, in data set [10] (SW620, 4.0 μM), the “percentage of cell apoptosis” value is 45.9%. The “percentage of cell apoptosis” value in data set [10] (SW620, 8.0 μM) was 65.0%.
